Measurements reported in PubChem BioAssay (NCI).
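All cell lines were grown in 96-well plates and treated with compound for 48 hours. Abbreviation: GI50, concentration required for 50% inhibition of growth. The concentration for full growth arrest is given as TGI.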

Columns and labels:
Experiment in all cases: NCI tumour cell line growth inhibition, 48 h
[1] = system: SK-MEL-2 melanoma
[2] = system: COLO 205 colon
[3] = system: SNB-19 CNS
[4] = system: HT29 colon
[5] = system: TK-10 renal
[6] = system: SK-OV-3 ovarian
[7] = system: NCI-H23 lung
[8] = system: A549 NSCLC
[9] = system: OVCAR-4 ovarian
[10] = system: UACC-257 melanoma
[11] = system: K-562 leukemia
[12] = system: MDA-MB-231 breast
[13] = system: NCI-H522 lung
[14] = system: DU-145 prostate
[15] = system: NCI/ADR-RES ovarian
[16] = system: OVCAR-3 ovarian
[17] = system: HOP-92 NSCLC
[18] = system: UO-31 renal
[19] = system: LOX IMVI melanoma
[20] = system: RPMI-8226 leukemia
[21] = system: EKVX NSCLC
[22] = system: CAKI-1 renal
[23] = system: RXF 393 renal
[24] = system: HOP-62 NSCLC
[25] = system: SW-620 colon
[26] = system: NCI-H460 lung
[27] = system: 786-0 renal
[28] = system: U251 CNS
[29] = system: CCRF-CEM leukemia
[30] = system: PC-3 prostate
[31] = system: SF-268 CNS
[32] = system: SNB-75 CNS
[33] = system: SK-MEL-5 melanoma
[34] = system: UACC-62 melanoma
[35] = system: IGROV1 ovarian
[36] = system: M14 melanoma
[37] = system: MOLT-4 leukemia
[38] = system: HL-60(TB) leukemia
[39] = system: HCT-116 colon
[40] = system: SF-295 CNS
[41] = system: MDA-MB-435
[42] = system: BT-549 breast
[43] = system: SR leukemia
[44] = system: SN12C renal
[45] = system: MCF7 breast
[46] = system: MALME-3M melanoma
[47] = system: T-47D breast
[48] = system: SK-MEL-28 melanoma
[49] = system: KM12 colon
[50] = system: ACHN renal
[51] = system: OVCAR-8 ovarian
[52] = system: HCT-15 colon
[53] = system: HS 578T breast

## N#C/C(=C/N1CCN(C(=O)c2ccco2)C1=S)C(N)=O
[1]
  GI50: 24.4 µM
  TGI: 62.3 µM
[2]
  GI50: 24.9 µM
  TGI: > 100 µM
[3]
  GI50: 36.4 µM
  TGI: > 100 µM
[4]
  GI50: 24.1 µM
  TGI: > 100 µM
[5]
  GI50: 12.1 µM
  TGI: 53.6 µM
[6]
  GI50: 42.6 µM
  TGI: > 100 µM
[7]
  GI50: 21.4 µM
  TGI: 44 µM
[8]
  GI50: 34.5 µM
  TGI: > 100 µM
[9]
  GI50: 18.5 µM
  TGI: 73.8 µM
[10]
  GI50: 23.3 µM
  TGI: 50.8 µM
[11]
  GI50: 9.13 µM
  TGI: > 100 µM
[12]
  GI50: 13.1 µM
  TGI: 37 µM
[13]
  GI50: 18.7 µM
  TGI: 44.2 µM
[14]
  GI50: 29.8 µM
  TGI: > 100 µM
[15]
  GI50: 25.4 µM
  TGI: 59.6 µM
[16]
  GI50: 19 µM
  TGI: 59.8 µM
[17]
  GI50: 25.5 µM
  TGI: > 100 µM
[18]
  GI50: 23.5 µM
  TGI: 51.8 µM
[19]
  GI50: 2.5 µM
  TGI: 7.69 µM
[20]
  GI50: 12.4 µM
  TGI: > 100 µM
[21]
  GI50: 0.342 µM
  TGI: 0.982 µM
[22]
  GI50: 11.8 µM
  TGI: 34.4 µM
[23]
  GI50: 19.2 µM
  TGI: 82.2 µM
[24]
  GI50: 25.6 µM
  TGI: 66.9 µM
[25]
  GI50: 22.1 µM
  TGI: 81.7 µM
[26]
  GI50: 3.99 µM
  TGI: 50.7 µM
[27]
  GI50: 18 µM
  TGI: 46.9 µM
[28]
  GI50: 11.5 µM
  TGI: 46.8 µM
[29]
  GI50: > 100 µM
  TGI: > 100 µM
[30]
  GI50: 35.6 µM
  TGI: > 100 µM
[31]
  GI50: 11.7 µM
  TGI: 36.4 µM
[32]
  GI50: > 100 µM
  TGI: > 100 µM
[33]
  GI50: 16.5 µM
  TGI: 38.9 µM
[34]
  GI50: 14 µM
  TGI: 38.3 µM
[35]
  GI50: 24 µM
  TGI: 86.8 µM
[36]
  GI50: 16.5 µM
  TGI: 43.2 µM
[37]
  GI50: 39.8 µM
  TGI: > 100 µM
[38]
  GI50: 22 µM
  TGI: 57.3 µM
[39]
  GI50: 21.2 µM
  TGI: 92.9 µM
[40]
  GI50: 32.1 µM
  TGI: > 100 µM
[41]
  GI50: 14.6 µM
  TGI: 44.1 µM
[42]
  GI50: 22.5 µM
  TGI: 55.9 µM
[43]
  GI50: 3.03 µM
  TGI: > 100 µM
[44]
  GI50: 12 µM
  TGI: 32.2 µM
[45]
  GI50: 1.71 µM
  TGI: 21 µM
[46]
  GI50: 12.5 µM
  TGI: 56.8 µM
[47]
  GI50: 9.32 µM
  TGI: > 100 µM
[48]
  GI50: 15.8 µM
  TGI: > 100 µM
[49]
  GI50: 7.51 µM
  TGI: 98.2 µM
[50]
  GI50: 11.8 µM
  TGI: 38.8 µM
[51]
  GI50: 43.7 µM
  TGI: > 100 µM
[52]
  GI50: 3.82 µM
  TGI: > 100 µM

## NC(N)=Nc1ccc(-n2nc(C(F)(F)F)cc2-c2ccc3c(ccc4ccccc43)c2)cc1
[53]
  GI50: 1.59 µM
  TGI: 4.34 µM
[15]
  GI50: 3.14 µM
  TGI: 15.6 µM
[20]
  GI50: 2.16 µM
  TGI: 5.06 µM
[29]
  GI50: 2.05 µM
  TGI: 5.53 µM
[37]
  GI50: 2.35 µM
  TGI: 4.92 µM
[38]
  GI50: 1.09 µM
  TGI: 2.82 µM
